US6022851A, “Lantibiotic related to actagardine, and processes for the preparation and use thereof” (priority 1997, dated 2000)
Where two headings read alike, the source gives them in different places.

Key:
Solubility = type: physicochemical; settings: in methanol and water
Stability in solution = type: physicochemical
E. Coli = type: cell-based; settings: incubation time 24 h
Description: (§1) Tables 4 to 6 show the in-vitro antibacterial activity (MIC values[μg/ml]) of the actagardine (Acta) and of the compounds according to the invention.

S. aureus Exp54146 = type: cell-based; settings: incubation time 24 h
Description: as §1

S. aureus SG511 = type: cell-based; settings: incubation time 24 h
Description: as §1

S. pyogenes A561 = type: cell-based; settings: incubation time 24 h
Description: as §1

E. faecalis 02D2DU18 = experiment: in-vitro antibacterial activity (MIC), incubation time 18 h; type: cell-based; settings: incubation time 18 h
Description: as §1

E. faecalis 02D2HM9 = experiment: as above; type: cell-based; settings: incubation time 18 h
Description: as §1

E. faecalis 02D2HT10 = experiment: as above; type: cell-based; settings: incubation time 18 h
Description: as §1

E. faecalis 02D2UC5 = experiment: as above; type: cell-based; settings: incubation time 18 h
Description: as §1

S. aureus 011DU5 = experiment: as above; type: cell-based; settings: incubation time 18 h
Description: as §1

S. aureus 011HT18 = experiment: as above; type: cell-based; settings: incubation time 18 h
Description: as §1

S. aureus 011HT1 = experiment: as above; type: cell-based; settings: incubation time 18 h
Description: as §1

S. aureus 011HT3 = experiment: as above; type: cell-based; settings: incubation time 18 h
Description: as §1

S. aureus 0121O64 = experiment: as above; type: cell-based; settings: incubation time 18 h
Description: as §1

S. epidermidis 012GO20 = experiment: as above; type: cell-based; settings: incubation time 18 h
Description: as §1

S. epidermidis 012GO42 = experiment: as above; type: cell-based; settings: incubation time 18 h
Description: as §1

S. milleri 02milGR12 = experiment: as above; type: cell-based; settings: incubation time 18 h
Description: as §1

S. mitis 02mitGR16 = experiment: as above; type: cell-based; settings: incubation time 18 h
Description: as §1

S. pneumoniae 030BI2 = experiment: as above; type: cell-based; settings: incubation time 18 h
Description: as §1

S. pyogenes 02A1FI6 = experiment: as above; type: cell-based; settings: incubation time 18 h
Description: as §1

S. pyogenes 02A1UC1 = experiment: as above; type: cell-based; settings: incubation time 18 h
Description: as §1

S. pyogenes O2A1SJ1 = experiment: as above; type: cell-based; settings: incubation time 18 h
Description: as §1

[1] = tested on: Staph. coag. negative 012HT5; experiment: as above; type: cell-based; settings: incubation time 18 h
Description: as §1

Strepto gr. G 02G0CB2 = experiment: as above; type: cell-based; settings: incubation time 18 h
Description: as §1

In the case of `CC[C@H](C)[C@@H]1NC(=O)C2NC(=O)[C@H](CC(C)C)NC(=O)C(NC(=O)C3CSCC(NC(=O)[C@H](C)N)C(=O)N[C@@H](CO)C(=O)NCC(=O)N[C@@H](Cc4c[nH]c5ccccc45)C(=O)N[C@@H](C(C)C)C(=O)N3)C(C)SCC(NC(=O)[C@H](CCC(=O)O)NC1=O)C(=O)NCC(=O)NC1C(=O)N[C@@H](C(C)C)C(=O)N[C@@H]([C@@H](C)CC)C(=O)NC(CSC2C)C(=O)N[C@@H](C)C(=O)NC(C(=O)O)C[S+]([O-])C1C` (stereo partly shown) [Ala(0)-actagardine], the solubility (Solubility) is reported as “soluble”, the stability (Stability in solution; in neutral and mildly alkaline medium) is reported as “Stable” and the stability (Stability in solution; in strongly acidic and strongly alkaline solution) is reported as “unstable”. For the same compound, the “cytotoxic actions or other toxicities” value (Tolerability / toxicity) was “not observed” and the tolerability (Tolerability / toxicity; at the active concentration and above) was “good”.

For “di-Boc-Lys(0)-actagardine [Boc--Lys--Acta]”, the MIC values (E. Coli) was greater than 40 µg/mL, the MIC values (S. aureus Exp54146) was 10 µg/mL and the MIC values (S. aureus SG511; S. aureus SG511 + 10% serum) was 10 µg/mL. The MIC values (S. aureus SG511; S. aureus SG511) was 2.5 µg/mL, the MIC values (S. pyogenes A561) was “<= 0.04 μg/ml” and the MIC values (E. faecalis 02D2DU18) was 10 µg/mL. It also gave an MIC values (E. faecalis 02D2HM9) greater than 40 µg/mL, an MIC values (E. faecalis 02D2HT10) greater than 40 µg/mL and an MIC values (E. faecalis 02D2UC5) of 40 µg/mL. For the same compound, the MIC values (S. aureus 011DU5) was 40 µg/mL, the MIC values (S. aureus 011HT18) was greater than 40 µg/mL and the MIC values (S. aureus 011HT1) was 10 µg/mL. It also gave an MIC values (S. aureus 011HT3; S. aureus 011HT3 + 10% serum) of 20 µg/mL, an MIC values (S. aureus 011HT3; S. aureus 011HT3 + 50% serum) of 40 µg/mL and an MIC values (S. aureus 011HT3; S. aureus 011HT3) of 10 µg/mL. It also gave an MIC values (S. aureus 0121O64) greater than 40 µg/mL, an MIC values (S. epidermidis 012GO20) greater than 40 µg/mL and an MIC values (S. epidermidis 012GO42) greater than 40 µg/mL. For the same compound, the MIC values (S. milleri 02milGR12) was 5 µg/mL, the MIC values (S. mitis 02mitGR16) was 5 µg/mL and the MIC values (S. pneumoniae 030BI2) was 1.2 µg/mL. The MIC values (S. pyogenes 02A1FI6) was “<= 0.04 μg/ml”, the MIC values (S. pyogenes 02A1UC1) was “<= 0.04 μg/ml” and the MIC values (S. pyogenes O2A1SJ1) was 0.08 µg/mL. It also gave an MIC values [1] greater than 40 µg/mL and an MIC values (Strepto gr. G 02G0CB2) of 2.5 µg/mL.
